# Reference: patent publication US20120034193A1, “TREATMENT OF NEUROTROPHIC FACTOR MEDIATED DISORDERS” (priority 2009, published 2012)
# Key:
# Assay in all cases: Binding assay
# Details in all cases: smilagenin 1 μM
# [1] = target: 5-Hydroxytryptamine, 5-HT1B (Rattus norvegicus, UniProt P28564)
# Procedure: (§1) The receptor binding was investigated using the following method: Sarsasapogenin was incubated with tissue or cell homogenate that expressed the receptor of interest and a known concentration a radiolabelled compound with affinity for the receptor of interest. After the incubation period the non-bound radiolabelled compound was removed and the amount of specific binding was quantified. The amount of specific binding in the presence and absence of sarsasapogenin were compared and the percent inhibition of the binding of the radiolabelled compound by sarsasapogenin was calculated. The source of the receptor, the incubation conditions, the radiolabelled compound used varied depending on each specific assay.
# (§2) Using the same methods as described above, the binding of smilagenin (1 μM) to the receptors listed in Table 2 below, and the effect of smilagenin on the activity of the enzymes listed in Table 2 below, were investigated.
# [2] = target: 5-Hydroxytryptamine, 5-HT2C (Homo sapiens, UniProt P28335)
# Procedure: as §1, §2
# Adrenergic α2C = Adrenergic α2C (Homo sapiens, UniProt P18825)
# Procedure: as §1, §2
# Adrenergic β2 = Adrenergic β2 (Homo sapiens, UniProt P07550)
# Procedure: as §1, §2
# Adrenomedullin AM2 = Adrenomedullin AM2 (Homo sapiens, UniProt O60896+Q16602)
# Procedure: as §1, §2
# Aldosterone = Aldosterone (Rattus norvegicus, UniProt P22199)
# Procedure: as §1, §2
# Cannabinoid CB2 = Cannabinoid CB2 (Homo sapiens, UniProt P34972)
# Procedure: as §1, §2
# Chemokine CCR2B = Chemokine CCR2B (Homo sapiens, UniProt P41597)
# Procedure: as §1, §2
# Chemokine CXCR1 (IL-8RB) = Chemokine CXCR1 (IL-8RB) (Homo sapiens, UniProt P25025)
# Procedure: as §1, §2
# [3] = target: Cholecystokinin CCK1 (CCKA) (Homo sapiens, UniProt P32238)
# Procedure: as §1, §2
# [4] = target: Cholecystokinin CCK2 (CCKB) (Homo sapiens, UniProt P32239)
# Procedure: as §1, §2
# Dopamine D1 = target: T1, Dopamine D1 (Homo sapiens, UniProt P21728)
# T1 construct: host or cells: tissue or cell homogenate, not specified
# Procedure: as §1, §2
# Dopamine D3 = Dopamine D3 (Homo sapiens, UniProt P35462)
# Procedure: as §1, §2
# Galanin GAL1 = target: T2, Galanin GAL1 (Homo sapiens, UniProt P47211)
# T2 construct: host or cells: tissue or cell homogenate (not specified)
# Procedure: as §1, §2
# Histamine H2 = target: T3, Histamine H2 (Homo sapiens, UniProt P25021)
# T3 construct: host or cells: tissue or cell homogenate (not specified)
# Procedure: as §1, §2
# Histamine H3 = target: T4, Histamine H3 (Homo sapiens, UniProt Q9Y5N1)
# T4 construct: host or cells: tissue or cell homogenate (not specified)
# Procedure: as §1, §2
# Histamine H4 = Histamine H4 (Homo sapiens, UniProt Q9H3N8)
# Procedure: as §1, §2
# Insulin = Insulin (Rattus norvegicus, UniProt P15127)
# Procedure: as §1, §2
# [5] = target: Leukotriene, Cysteinyl CysLT1 (Homo sapiens, UniProt Q9Y271)
# Procedure: as §1, §2
# [6] = target: Leukotriene, Cysteinyl CysLT2 (Homo sapiens, UniProt Q9NS75)
# Procedure: as §1, §2
# Melanocortin MC3 = Melanocortin MC3 (Homo sapiens, UniProt P41968)
# Procedure: as §1, §2
# Melanocortin MC4 = Melanocortin MC4 (Homo sapiens, UniProt P32245)
# Procedure: as §1, §2
# Motilin = Motilin (Homo sapiens, UniProt O43193)
# Procedure: as §1, §2
# Muscarinic M1 = target: T5, Muscarinic M1 (Homo sapiens, UniProt P11229)
# T5 construct: host or cells: tissue or cell homogenate, not specified
# Procedure: as §1, §2
# Muscarinic M5 = target: T6, Muscarinic M5 (Homo sapiens, UniProt P08912)
# T6 construct: host or cells: tissue or cell homogenate, not specified
# Procedure: as §1, §2
# [7] = target: N-Formyl Peptide Receptor FPR1 (Homo sapiens, UniProt P21462)
# Procedure: as §1, §2
# Oestrogen (ERα) = target: T7, Oestrogen (ERα) (Homo sapiens, UniProt P03372)
# T7 construct: host or cells: tissue or cell homogenate (not specified)
# Procedure: as §1, §2
# Orphanin ORL1 = Orphanin ORL1 (Homo sapiens, UniProt P41146)
# Procedure: as §1, §2
# Progesterone PR-B = Progesterone PR-B (Homo sapiens, UniProt P06401)
# Procedure: as §1, §2
# Prostanoid DP = Prostanoid DP (Homo sapiens, UniProt Q13258)
# Procedure: as §1, §2
# Prostanoid EP2 = Prostanoid EP2 (Homo sapiens, UniProt P43116)
# Procedure: as §1, §2
# Prostanoid EP4 = Prostanoid EP4 (Homo sapiens, UniProt P35408)
# Procedure: as §1, §2
# Somatostatin sst2 = Somatostatin sst2 (Homo sapiens, UniProt P30874)
# Procedure: as §1, §2
# Somatostatin sst5 = Somatostatin sst5 (Homo sapiens, UniProt P35346)
# Procedure: as §1, §2
# [8] = target: Thyrotropin Releasing Hormone (TRH) (Rattus norvegicus, UniProt Q01717)
# Procedure: as §1, §2
# Transporter, Choline = Transporter, Choline (Rattus norvegicus, UniProt Q9JMD7)
# Procedure: as §1, §2
# Sequence of Chemokine CXCR1 (IL-8RB) (P25025 whole entry): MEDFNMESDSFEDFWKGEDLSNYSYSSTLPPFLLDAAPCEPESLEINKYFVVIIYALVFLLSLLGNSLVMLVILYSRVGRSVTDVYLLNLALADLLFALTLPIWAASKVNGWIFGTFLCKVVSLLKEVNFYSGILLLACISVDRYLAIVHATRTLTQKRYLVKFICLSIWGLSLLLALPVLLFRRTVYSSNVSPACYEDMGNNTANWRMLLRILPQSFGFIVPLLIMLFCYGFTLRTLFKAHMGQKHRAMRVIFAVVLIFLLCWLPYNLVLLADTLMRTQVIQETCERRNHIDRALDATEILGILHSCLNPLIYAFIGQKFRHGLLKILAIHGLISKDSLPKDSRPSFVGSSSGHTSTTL
# Sequence of Dopamine D3 (P35462 whole entry): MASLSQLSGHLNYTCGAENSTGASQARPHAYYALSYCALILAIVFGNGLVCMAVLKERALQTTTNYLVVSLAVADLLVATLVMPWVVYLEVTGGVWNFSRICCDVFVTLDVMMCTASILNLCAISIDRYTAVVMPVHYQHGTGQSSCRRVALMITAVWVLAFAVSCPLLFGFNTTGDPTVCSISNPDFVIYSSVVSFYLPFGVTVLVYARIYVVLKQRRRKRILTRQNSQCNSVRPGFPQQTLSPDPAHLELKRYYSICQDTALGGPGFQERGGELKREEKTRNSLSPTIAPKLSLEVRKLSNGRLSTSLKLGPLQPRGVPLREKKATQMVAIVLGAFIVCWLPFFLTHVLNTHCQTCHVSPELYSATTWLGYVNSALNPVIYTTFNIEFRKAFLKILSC
# Sequence of Leukotriene, Cysteinyl CysLT1 (Q9Y271 whole entry): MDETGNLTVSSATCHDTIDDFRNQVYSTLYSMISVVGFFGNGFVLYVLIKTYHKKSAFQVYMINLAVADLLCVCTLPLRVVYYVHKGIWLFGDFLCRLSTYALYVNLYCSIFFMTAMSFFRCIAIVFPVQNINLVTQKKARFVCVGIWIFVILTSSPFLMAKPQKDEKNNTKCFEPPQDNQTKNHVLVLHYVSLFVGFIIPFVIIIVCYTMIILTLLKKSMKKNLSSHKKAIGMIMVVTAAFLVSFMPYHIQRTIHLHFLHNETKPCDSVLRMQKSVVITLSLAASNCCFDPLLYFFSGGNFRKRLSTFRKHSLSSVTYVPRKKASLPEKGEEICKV
# Sequence of Leukotriene, Cysteinyl CysLT2 (Q9NS75 whole entry): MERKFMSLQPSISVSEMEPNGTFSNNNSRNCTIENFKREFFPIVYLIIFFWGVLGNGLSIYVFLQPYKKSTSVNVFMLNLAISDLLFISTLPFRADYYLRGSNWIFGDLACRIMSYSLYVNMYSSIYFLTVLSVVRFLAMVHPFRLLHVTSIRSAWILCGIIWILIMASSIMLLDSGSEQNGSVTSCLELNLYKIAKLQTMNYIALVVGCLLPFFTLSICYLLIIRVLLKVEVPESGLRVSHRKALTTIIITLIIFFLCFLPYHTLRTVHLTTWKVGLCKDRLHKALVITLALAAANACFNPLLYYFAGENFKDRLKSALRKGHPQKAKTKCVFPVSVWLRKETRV
# T3 sequence (P25021 whole entry): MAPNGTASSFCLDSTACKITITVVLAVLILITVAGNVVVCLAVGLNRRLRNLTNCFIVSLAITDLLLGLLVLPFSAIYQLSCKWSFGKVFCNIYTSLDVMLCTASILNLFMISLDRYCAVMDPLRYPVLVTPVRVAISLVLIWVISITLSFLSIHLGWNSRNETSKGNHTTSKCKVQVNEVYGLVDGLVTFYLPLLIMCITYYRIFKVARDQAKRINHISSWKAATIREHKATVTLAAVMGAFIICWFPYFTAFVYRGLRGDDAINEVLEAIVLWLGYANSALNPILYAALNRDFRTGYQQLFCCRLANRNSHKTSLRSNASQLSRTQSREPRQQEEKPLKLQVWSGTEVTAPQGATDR
# Sequence of Transporter, Choline (Q9JMD7 whole entry): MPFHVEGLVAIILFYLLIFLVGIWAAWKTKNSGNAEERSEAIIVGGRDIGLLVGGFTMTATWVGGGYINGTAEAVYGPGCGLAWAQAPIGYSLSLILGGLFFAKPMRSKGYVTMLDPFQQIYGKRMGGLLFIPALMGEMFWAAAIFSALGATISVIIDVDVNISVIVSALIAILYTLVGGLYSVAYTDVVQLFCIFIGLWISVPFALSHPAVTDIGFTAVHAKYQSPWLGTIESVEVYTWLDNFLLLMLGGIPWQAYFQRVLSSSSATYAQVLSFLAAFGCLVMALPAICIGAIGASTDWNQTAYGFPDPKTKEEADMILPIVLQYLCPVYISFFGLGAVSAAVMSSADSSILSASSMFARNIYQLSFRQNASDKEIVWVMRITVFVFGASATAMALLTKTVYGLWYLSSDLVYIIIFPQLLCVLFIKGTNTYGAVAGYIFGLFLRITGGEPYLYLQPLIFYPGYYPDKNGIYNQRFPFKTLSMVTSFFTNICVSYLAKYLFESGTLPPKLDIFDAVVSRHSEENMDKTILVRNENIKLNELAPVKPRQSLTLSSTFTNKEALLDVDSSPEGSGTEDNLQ
# Sequence of Chemokine CCR2B (P41597 1-360 isoform P41597-2): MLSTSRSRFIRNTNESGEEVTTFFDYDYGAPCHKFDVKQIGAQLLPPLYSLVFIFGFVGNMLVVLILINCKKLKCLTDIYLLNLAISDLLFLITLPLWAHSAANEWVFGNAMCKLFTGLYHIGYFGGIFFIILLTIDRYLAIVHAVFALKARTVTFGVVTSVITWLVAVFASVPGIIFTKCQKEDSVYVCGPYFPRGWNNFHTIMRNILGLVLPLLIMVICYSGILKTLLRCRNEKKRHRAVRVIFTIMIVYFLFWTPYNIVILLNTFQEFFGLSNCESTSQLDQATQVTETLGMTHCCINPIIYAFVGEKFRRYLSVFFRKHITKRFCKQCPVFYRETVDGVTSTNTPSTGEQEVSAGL
# Sequence of Prostanoid EP4 (P35408 whole entry): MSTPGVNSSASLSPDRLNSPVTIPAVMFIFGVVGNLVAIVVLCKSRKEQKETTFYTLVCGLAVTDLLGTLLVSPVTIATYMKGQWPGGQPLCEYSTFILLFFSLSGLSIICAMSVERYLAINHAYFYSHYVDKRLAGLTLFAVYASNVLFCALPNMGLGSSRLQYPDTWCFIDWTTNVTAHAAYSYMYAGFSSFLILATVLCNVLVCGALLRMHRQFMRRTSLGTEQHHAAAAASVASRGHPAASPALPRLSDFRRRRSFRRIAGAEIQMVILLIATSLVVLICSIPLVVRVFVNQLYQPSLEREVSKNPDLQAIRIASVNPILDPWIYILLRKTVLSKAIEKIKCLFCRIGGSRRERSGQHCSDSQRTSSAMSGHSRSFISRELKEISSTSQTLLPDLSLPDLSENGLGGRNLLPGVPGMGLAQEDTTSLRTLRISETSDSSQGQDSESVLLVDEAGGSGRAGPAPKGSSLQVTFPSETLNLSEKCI
# Sequence of N-Formyl Peptide Receptor FPR1 (P21462 whole entry): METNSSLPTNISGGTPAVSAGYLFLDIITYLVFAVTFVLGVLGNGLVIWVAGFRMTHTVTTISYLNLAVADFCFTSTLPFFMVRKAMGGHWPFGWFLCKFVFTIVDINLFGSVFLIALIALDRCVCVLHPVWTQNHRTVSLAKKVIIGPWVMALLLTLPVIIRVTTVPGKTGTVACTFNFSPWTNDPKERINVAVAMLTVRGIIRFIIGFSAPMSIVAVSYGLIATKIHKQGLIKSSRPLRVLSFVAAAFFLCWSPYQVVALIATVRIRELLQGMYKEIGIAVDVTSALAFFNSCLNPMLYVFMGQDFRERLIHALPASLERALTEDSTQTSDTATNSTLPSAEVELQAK
# Sequence of Prostanoid DP (Q13258 whole entry): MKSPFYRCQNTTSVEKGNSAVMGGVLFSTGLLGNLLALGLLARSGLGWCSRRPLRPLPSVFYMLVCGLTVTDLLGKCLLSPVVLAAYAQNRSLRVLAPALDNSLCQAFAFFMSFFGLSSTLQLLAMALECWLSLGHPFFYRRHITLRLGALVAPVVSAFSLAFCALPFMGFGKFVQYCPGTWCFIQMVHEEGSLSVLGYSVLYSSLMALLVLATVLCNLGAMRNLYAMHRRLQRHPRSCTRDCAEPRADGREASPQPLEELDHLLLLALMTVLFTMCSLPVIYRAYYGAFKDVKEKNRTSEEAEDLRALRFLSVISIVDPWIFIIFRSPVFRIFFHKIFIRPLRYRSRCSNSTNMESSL
# Sequence of Aldosterone (P22199 whole entry): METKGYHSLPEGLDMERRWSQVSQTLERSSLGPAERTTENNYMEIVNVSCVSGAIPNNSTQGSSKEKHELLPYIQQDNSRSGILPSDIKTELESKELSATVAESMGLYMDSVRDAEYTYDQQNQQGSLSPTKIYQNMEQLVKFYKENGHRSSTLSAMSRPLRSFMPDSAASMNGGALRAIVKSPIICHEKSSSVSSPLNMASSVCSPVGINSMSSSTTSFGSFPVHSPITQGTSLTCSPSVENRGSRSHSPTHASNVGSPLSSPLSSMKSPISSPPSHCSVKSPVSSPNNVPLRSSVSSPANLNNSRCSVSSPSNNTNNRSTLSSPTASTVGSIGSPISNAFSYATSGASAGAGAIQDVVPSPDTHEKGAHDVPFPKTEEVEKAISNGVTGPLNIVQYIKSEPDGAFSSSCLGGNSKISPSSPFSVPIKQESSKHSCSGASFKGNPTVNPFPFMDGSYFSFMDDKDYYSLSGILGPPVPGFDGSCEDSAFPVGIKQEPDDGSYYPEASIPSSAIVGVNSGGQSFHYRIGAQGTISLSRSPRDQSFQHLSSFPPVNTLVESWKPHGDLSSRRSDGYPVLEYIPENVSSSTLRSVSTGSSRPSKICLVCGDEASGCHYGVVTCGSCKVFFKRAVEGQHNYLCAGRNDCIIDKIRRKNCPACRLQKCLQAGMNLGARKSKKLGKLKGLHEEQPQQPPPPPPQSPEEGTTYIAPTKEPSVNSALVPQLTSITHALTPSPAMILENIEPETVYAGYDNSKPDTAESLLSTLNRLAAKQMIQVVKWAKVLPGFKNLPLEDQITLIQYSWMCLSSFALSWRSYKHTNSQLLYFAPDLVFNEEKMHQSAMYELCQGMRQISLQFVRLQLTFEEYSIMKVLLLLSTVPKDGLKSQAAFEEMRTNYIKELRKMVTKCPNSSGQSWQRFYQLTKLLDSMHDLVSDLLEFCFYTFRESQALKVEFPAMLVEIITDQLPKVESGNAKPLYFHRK
structure (smiles),measurement,setting,value
"C[C@@H]1CC[C@@]2(OC1)O[C@H]1C[C@H]3[C@@H]4CC[C@@H]5C[C@@H](O)CC[C@]5(C)[C@H]4CC[C@]3(C)[C@H]1[C@@H]2C [Smilagenin, smilagenin]",Effect (%),[1],NS (NS = No significant response. Significance was taken as ≧30% stimulation or inhibition)
same,Effect (%),[2],NS (NS = No significant response. Significance was taken as ≧30% stimulation or inhibition)
same,Effect (%),Adrenergic α2C,NS (NS = No significant response. Significance was taken as ≧30% stimulation or inhibition)
same,Effect (%),Adrenergic β2,NS (NS = No significant response. Significance was taken as ≧30% stimulation or inhibition)
same,Effect (%),Adrenomedullin AM2,NS (NS = No significant response. Significance was taken as ≧30% stimulation or inhibition)
same,Effect (%),Aldosterone,NS (NS = No significant response. Significance was taken as ≧30% stimulation or inhibition)
same,Effect (%),Cannabinoid CB2,NS (NS = No significant response. Significance was taken as ≧30% stimulation or inhibition)
same,Effect (%),Chemokine CCR2B,NS (NS = No significant response. Significance was taken as ≧30% stimulation or inhibition)
same,Effect (%),Chemokine CXCR1 (IL-8RB),NS (NS = No significant response. Significance was taken as ≧30% stimulation or inhibition)
same,Effect (%),[3],NS (NS = No significant response. Significance was taken as ≧30% stimulation or inhibition)
same,Effect (%),[4],NS (NS = No significant response. Significance was taken as ≧30% stimulation or inhibition)
same,Effect (%),Dopamine D1,NS (NS = No significant response. Significance was taken as ≧30% stimulation or inhibition)
same,Effect (%),Dopamine D3,NS (NS = No significant response. Significance was taken as ≧30% stimulation or inhibition)
same,Effect (%),Galanin GAL1,NS (NS = No significant response. Significance was taken as ≧30% stimulation or inhibition)
same,Effect (%),Histamine H2,NS (NS = No significant response. Significance was taken as ≧30% stimulation or inhibition)
same,Effect (%),Histamine H3,NS (NS = No significant response. Significance was taken as ≧30% stimulation or inhibition)
same,Effect (%),Histamine H4,NS (NS = No significant response. Significance was taken as ≧30% stimulation or inhibition)
same,Effect (%),Insulin,NS (NS = No significant response. Significance was taken as ≧30% stimulation or inhibition)
same,Effect (%),[5],NS (NS = No significant response. Significance was taken as ≧30% stimulation or inhibition)
same,Effect (%),[6],NS (NS = No significant response. Significance was taken as ≧30% stimulation or inhibition)
same,Effect (%),Melanocortin MC3,NS (NS = No significant response. Significance was taken as ≧30% stimulation or inhibition)
same,Effect (%),Melanocortin MC4,NS (NS = No significant response. Significance was taken as ≧30% stimulation or inhibition)
same,Effect (%),Motilin,NS (NS = No significant response. Significance was taken as ≧30% stimulation or inhibition)
same,Effect (%),Muscarinic M1,NS (NS = No significant response. Significance was taken as ≧30% stimulation or inhibition)
same,Effect (%),Muscarinic M5,NS (NS = No significant response. Significance was taken as ≧30% stimulation or inhibition)
same,Effect (%),[7],NS (NS = No significant response. Significance was taken as ≧30% stimulation or inhibition)
same,Effect (%),Oestrogen (ERα),NS (NS = No significant response. Significance was taken as ≧30% stimulation or inhibition)
same,Effect (%),Orphanin ORL1,NS (NS = No significant response. Significance was taken as ≧30% stimulation or inhibition)
same,Effect (%),Progesterone PR-B,NS (NS = No significant response. Significance was taken as ≧30% stimulation or inhibition)
same,Effect (%),Prostanoid DP,NS (NS = No significant response. Significance was taken as ≧30% stimulation or inhibition)
same,Effect (%),Prostanoid EP2,NS (NS = No significant response. Significance was taken as ≧30% stimulation or inhibition)
same,Effect (%),Prostanoid EP4,NS (NS = No significant response. Significance was taken as ≧30% stimulation or inhibition)
same,Effect (%),Somatostatin sst2,NS (NS = No significant response. Significance was taken as ≧30% stimulation or inhibition)
same,Effect (%),Somatostatin sst5,NS (NS = No significant response. Significance was taken as ≧30% stimulation or inhibition)
same,Effect (%),[8],NS (NS = No significant response. Significance was taken as ≧30% stimulation or inhibition)
same,Effect (%),"Transporter, Choline",NS (NS = No significant response. Significance was taken as ≧30% stimulation or inhibition)
